Legend:
[1] = target: T1, porcine succinate-cytochrome c reductase (SCR, the mixture of complex II and bc1) (Sus scrofa, UniProt P24964); assay: SCR activity, succinate-cytochrome c system (Assay 1); type: biochemical; conditions: for ligand efficiency (LE): from Ki against bc1 complex; for binding behaviour to bc1 complex (slow or fast binding): progress curves of SCR-catalysed reaction
T1 construct: T h e S C R f r o m p o r c i n e h e a r t; from tissue; host or cells: porcine heart
Protocol: (§1) Figure 4 Slow-binding inhibition mechanism. (A,B) Effect of various concentrations of cytochrome c and compound 18 on the inhibition of SCR activity. Each reaction mixture contains 100 mM, pH 7.4), EDTA (0.3 mM), succinate (20 mM), SCR (0.1 nM), and indicated amounts of cytochrome c and compound 18. The assays were performed in the presence of (A) 18 (35 nM) and a specified amount of cytochrome c (1, 4 μM; 2, 8 μM; 3, 20 μM; and 4, 48 μM) or (B) cytochrome c (60 μM) and various concentrations of compound 18 (1, 0 nM; 2, 15 nM; 3, 20 nM; 4, 30 nM; 5, 40 nM; and 6, 50 nM). Experimental data are shown as coloured dots and theoretical values are represented as black solid lines. Insets: plots of Kobs against concentration of (A) cytochrome c and (B) compound 18. […] Each reaction mixture contains 100 mM, pH 6.5), EDTA (2 mM), lauryl maltoside (750 μM), oxidised cytochrome c (100 μM), SCR (0.05 nM), and indicated amounts of DBH2 and compound 18. Two representative sets of inhibitory assays were performed in the presence of (C) DBH2 (20 μM) and a specified amount of compound 18 (1, 20 nM; 2, 40 nM; 3, 60 nM; 4, 80 nM), or (D) DBH2 (120 μM) and a specified amount of compound 18 (1, 40 nM; 2, 80 nM; 3, 120 nM; 4, 180 nM). Insets: plots of Kobs against concentration of compound 18. (E) Plot of the apparent rate constant A against concentration of DBH2. Inset: Plot of 1/A against concentration of DBH2. (F) Plot of the apparent rate constant B against concentration of DBH2.
(§2) The porcine succinate-cytochrome c reductase (SCR, the mixture of complex II and bc1) was prepared essentially according to the previously reported method. The enzymatic activities of SCR, complex II, and bc1 complex were analyzed in respective reaction mixtures as reported previously. Kinetic analyses for the inhibition mechanism were performed as previously described. […]
(§3) inhibitory kinetics study of bc1 inhibitors 8. […]
(§4) synthesized compounds against bc1 complex were examined by SCR. As previously described 9, the combined activity of SCR can be determined by using succinate and cytochrome c as substrates (Assay 1). We also measured the activity of complex II by using succinate and 2,6-dichloroindophenol (DCIP) as substrates (Assay 2), or the activity of bc1 complex by using decylubiquinol (DBH2) and cytochrome c as substrates (Assay 3). […]
redA 10, was used to represent the enzyme concentration. The three redox reactions used in this study were summarized as follows.
Assay 1: succinate + cytochrome c3+ S C R fumarate + cytochrome c2+
Assay 2: succinate + DCIP complex II fumarate + DCIPH 2
Assay 3: DBH 2 + cytochrome c3+ bc1 complex DB + cytochrome c2+
All assays were performed at 23 °C. The enzymatic activity of SCR (Assay 1) was carried out in 1.8 mL of reaction mixture containing 100 mM PBS (pH 7.4), 0.3 mM EDTA, and indicated concentrations of succinate and oxidized cytochrome c (Sigma-Aldrich). The activity of succinate-ubiquinone reductase (complex II, Assay 2) was determined in essentially the same reaction mixture, except for the replacement of cytochrome c with DCIP (Alfa Aesar). […] DBH 2 was prepared through reduction of decylubiquinone by dithionite (Sigma-Aldrich) as previously described 11,12. The nonionic detergent LM was used to decrease the interfering non-enzymatic activity though it slightly […]

[2] = target: T2, bc1 complex (Sus scrofa, UniProt P24964); assay: bc1 complex activity, DBH2-cytochrome c system (Assay 3); type: biochemical, porcine
T2 construct: T h e S C R f r o m p o r c i n e h e a r t; from tissue; host or cells: porcine heart
T2 sequence (P24964 whole entry, one chain of several): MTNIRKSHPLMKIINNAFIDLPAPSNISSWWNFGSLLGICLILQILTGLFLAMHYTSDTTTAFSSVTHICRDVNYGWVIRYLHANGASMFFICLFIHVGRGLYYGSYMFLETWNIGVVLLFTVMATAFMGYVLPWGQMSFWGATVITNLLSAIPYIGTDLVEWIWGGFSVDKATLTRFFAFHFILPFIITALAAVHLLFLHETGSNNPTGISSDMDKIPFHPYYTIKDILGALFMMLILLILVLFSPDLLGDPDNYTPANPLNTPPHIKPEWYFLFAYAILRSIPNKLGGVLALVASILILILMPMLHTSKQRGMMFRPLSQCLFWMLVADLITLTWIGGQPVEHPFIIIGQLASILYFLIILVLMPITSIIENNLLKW
Protocol: Figure 3 Inhibitory kinetics of bc1 complex. (A) Chemical structures of AZ (azoxystrobin) and its analogues, compound 1 and compound 18. These compounds have a common pharmacophore structure: methoxyacrylate (MOA). […] Each reaction mixture contains phosphate buffered saline (PBS; 100 mM, pH 6.5), ethylenediaminetetraacetic acid (EDTA; 2 mM), lauryl maltoside (750 μM), oxidised cytochrome c (100 μM), SCR (0.05 nM), DBH2 (20–120 μM) and a specified amount of AZ (1, 0 nM; 2, 500 nM; 3, 1000 nM; 4, 2000 nM; 5, 3000 nM; and 6, 5000 nM). (C) Compound 1 is non-competitive with respect to cytochrome c. The reaction mixture contains 100 mM, pH 7.4), EDTA (0.3 mM), succinate (20 mM), SCR (0.1 nM), cytochrome c (1.13–15.6 μM), and a series of concentrations of compound 1 (1, 0 nM; 2, 10 nM; 3, 20 nM; 4, 40 nM; and 5, 60 nM). (D) Compound 1 is competitive with respect to DBH2. Each reaction mixture contains 100 mM, pH 6.5), EDTA (2 mM), lauryl maltoside (750 μM), oxidised cytochrome c (100 μM), SCR (0.05 nM), DBH2 (20–120 μM) and a specified amount of compound 1 (1, 0 nM; 2, 50 nM; 3, 100 nM; 4, 200 nM; 5, 300 nM; and 6, 500 nM).
as §1, §2, §3, §4
redA 10, was used to represent the enzyme concentration. The three redox reactions used in this study were summarized as follows. […]

T1 sequence (P24964 whole entry, one chain of several): as above

| SMILES | ligand efficiency (LE) [1] | binding behaviour to bc1 complex (slow or fast binding) [1] | Ki [2] [nM] | inhibition type with respect to DBH2 ([2]; Assay 3, varied DBH2) | Ki [1] [nM] | inhibition type with respect to cytochrome c ([1]; Assay 1, varied cytochrome c) | ∆∆Gexp ([1]; Table S1, experimental binding free energy change vs compound 1) [kcal/mol] | ΔΔGexp ([1]; experimental binding free energy change relative to compound 1) [kcal/mol] | kon ([1]; read-out: association rate constant k+0) [M⁻¹ s⁻¹] | koff ([1]; read-out: dissociation rate constant k−0) [s⁻¹] | microscopic inhibition rate constant k+0 ([2]; Assay 3, varied DBH2) [M⁻¹ s⁻¹] | microscopic inhibition rate constant k−0 ([2]; Assay 3, varied DBH2) [s⁻¹] |
| --- | --- | --- | --- | --- | --- | --- | --- | --- | --- | --- | --- | --- |
| CO/C=C(/C(=O)OC)c1ccccc1Oc1cc(Oc2ccccc2C#N)ncn1 [AZ, Azoxystrobin, reference compound] | 0.3 kcal mol^−1 per non-H atom | fast-binding | 395 ± 19.6 | competitive inhibitor | – | – | – | – | – | – | – | – |
| COC=C(C(=O)OC)c1ccccc1CSc1nc2cc(OC)ccc2s1 [Compound 18] | 0.45 kcal mol^−1 per non-H atom | slow-binding | 13.4 ± 0.6 | competitive inhibitor | 4.1 ± 0.5 | non-competitive | -1.20 | -1.20 | 660000 ± 10000 | 0.00271 ± 0.00031 | 380000 ± 10000 | 0.00509 ± 0.00009 |
